Assay results published in paper PMC3359661, “FK228 Analogues Induce Fetal Hemoglobin in Human Erythroid Progenitors” (Anemia, 2012).

Columns and labels:
Format in all cases: cell-based, human
[1] = system: γ-globin promoter activity in KU812-γF/βR stable lines; test: KU812 dual-luciferase reporter stable lines (μLCRβprRluc AγprFluc), γ-globin promoter activity; details: 48 hr; for Fold change (γ/γ + 2β): untreated normalized to one
Text: KU812 stable cell lines were created by co-transfecting wild-type KU812 cells with pEGFP-NI (G418 selectable marker) and theμLCRβ prRluc ^A γ prFluc dual-reporter a kind gifts from Dr. George Stamatoyannopoulos (University of Washington). […] Likewise, 1.4 kb of human Aγ-globin promoter was inserted upstream of firefly luciferase to create ^A γ prFluc. The μLCR (locus control region), Pβ prRluc, and ^A γ prFluc fragments were subsequently cloned into the mammalian vector, pRL-null.
After 72 hr, G418 was added at a concentration of […] for 3 days then maintained under selection pressure indefinitely at a concentration of […]. KU812 stable lines were treated with the various drugs at the same concentrations described above. FK228 and analogues were screened at concentrations between 1–1000 nM for 48 hr and cell toxicity was monitored by 2% Trypan blue exclusion. The effect of drug treatments on γ-globin and β-globin promoter activity was monitored by luciferase assay.
Luciferase activity was monitored under the different experimental conditions using the Dual Luciferase Assay Reporter System (Promega, Madison, WI). The activity of firefly luciferase represents γ-globin promoter activity (γF), while the renilla luciferase is the read-out for β-globin promoter activity (βR). The β-globin promoter was strategically cloned between the LCR and γ-globin promoter to increase β expression, while simultaneously increasing the sensitivity of detection of γ-globin gene inducers.
After drug treatments, KU812 stable cells were washed with 1X phosphate buffered saline and lysed in 1X Passive Lysis Buffer for 15 min, then protein extracts were added to the Luciferase Assay Reagent II and firefly luciferase activity quantified in a Turner Designs TD-20/20 luminometer (Sunnyvale, CA). To measure βR activity, Stop & Glo Reagents was added to measure the renilla luciferase activity. Total protein was determined by Bradford assay on a Beckman DU 640 spectrophotometer (Chaska, MN) and luciferase activity was corrected for total protein.
Subsequently, three independent dual-luciferase reporter KU812 stable cell lines were established to analyze the ability FK228 analogues to induce γ-globin promoter activity without an effect on β-globin transcription. […] Since the firefly luciferase gene (γF) has approximately […] luminescence than the renilla gene (βR), the renilla activity was multiplied by two to adjust for the difference in luminescence yielding the γ/γ+2β final measurement. The FK228 analogues were examined at concentrations ranging from 1–1000 nM in the three stable lines. After 48-hour treatments, cells were harvested and protein isolated for luciferase activity using the Dual Luciferase Reporter Assay.

[2] = system: γ-globin gene transcription in KU812 cells; test: RT-qPCR of γ/β-globin mRNA in wild type KU812 cells; details: 48 hr, Hem 50 μM, NaB 2 mM, SAHA 2 μM, FK228 1.5 nM, Cys 10 mM, untreated normalized to one, range over the drugs
Procedure: Human KU812 leukemia cells were grown in Iscove's Modified Dulbecco's medium (IMDM) (Invitrogen, Carlsbad, CA) with 10% fetal bovine serum (Atlanta Biologicals, Atlanta, GA), penicillin (100 U/mL), and streptomycin (0.1 mg/mL). The cells were incubated at 37°C with 5% CO2. Cell count and viability were determined using a hemocytometer and 2% Trypan blue exclusion. Inductions were performed with one million cells treated for 48 hr with the following drugs purchased from Sigma (St Louis, MO): 50 μM Hem (hemin), 2 mM NaB (sodium buytrate), 0.5 μM TSA, 10 mM Cys (cysteine), 1.5 nM FK228, and 100 μM HU (hydroxyurea). […] Inc. (Whitehouse Station, NJ).
Total RNA was isolated from samples using RNA Stat-60 (TEL-TEST “B” Inc., Friendswood, TX) and used for RT-qPCR analysis as previously published. […] The globin mRNA levels were calculated as a ratio of GAPDH (γ/GAPDH, β/GAPDH), and the γ/β-globin mRNA ratio was calculated by dividing γ/GAPDH by β/GAPDH. […]
Figure 2 Known HbF inducers activate γ-globin expression in KU812 cells. […] Cells were treated for 48 hr with the different drug inducers and γ-globin and β-globin gene transcription were measured by RT-qPCR (see Section 2). […] Data were calculated as the means ± standard error of the mean (SEM); *P < 0.05 and **P < 0.01. […]

[3] = system: HbF levels in primary erythroid cells; test: HbF ELISA in primary erythroid cells
Procedure: The two-phase liquid culture system was established as previously published by Fibach et al. using buffy coat mononuclear cells, purchased from Carter Blood Care (Fort Worth, TX) in accordance with the guidelines of the Institutional Review Board at the University of Texas at Dallas. During phase 1, cells were grown in IMDM medium with 30% fetal bovine serum and 50 ng/mL each of the granulocyte-monocyte colony-stimulating factor, Interleukin-3, and stem cell factor. Subsequently, phase 2 was initiated on day 7 with the addition of erythropoietin (2 U/mL) and stem cell factor (50 ng/mL). The cells were treated on Day 11 with the different test compounds and harvested on Day 14 (72 hr incubation).
Total hemoglobin was quantified using 20 μL of protein extract from one million KU812 cells mixed with 5 mL of Drabkin's reagent (Sigma); then cyanmethemoglobin was measured at the 540 nm wavelength. HbF levels were quantified using the human Hemoglobin F ELISA Quantitation Kit (Bethyl Laboratory, Montgomery, TX). Briefly, 96-well plates were coated with sheep anti-human HbF antibody (1 mg/mL). After blocking with 1% bovine serum albumin, horse radish peroxidase-conjugated secondary antibody (1 mg/mL) was added. Raw data were analyzed using GraphPad PRISM (GraphPad Software, Inc., La Jolla, CA) and HbF levels were calculated as a ratio of total hemoglobin corrected for total protein (HbF/total Hb/total protein).

SMILES: N[C@@H](CS)C(=O)O [Cys, cysteine]
- γ/γ + 2β Mean ([1]; Line 1, firefly (γ) / renilla (β) luciferase corrected for total protein, mean, conc: Cys 10 mM, Hemin 50 μM, SAHA 2000 nM, FK228 1.5 nM, 1127Ox 1000 nM, JMA1 1.5 nM, JMA2 1.0 nM, JMA12 1000 nM, JMA26 500 nM, JMA33 1000 nM, JMA112 100 nM, untreated 0.0402): 0.0388
- Fold change (γ/γ + 2β) ([1]; Line 1, concentrations as in E1): 0.950
- γ/γ + 2β Mean ([1]; Line 2, concentrations as in E1, untreated 0.1573): 0.1200
- Fold change (γ/γ + 2β) ([1]; Line 2, concentrations as in E1): 0.764
- γ/γ + 2β Mean ([1]; Line 3, concentrations as in E1, untreated 0.0721): 0.0860
- Fold change (γ/γ + 2β) ([1]; Line 3, concentrations as in E1): 1.194
- increase in the γ/β-globin mRNA levels [2]: not induced
- Fold change in HbF levels ([3]; relative to untreated = 1, concentrations as in E7): 1.079 fold
- Fetal hemoglobin quantification, Mean (HbF/total Hb/total protein) ([3]; treated Day 11, harvested Day 14, conc: Cys 10 mM, Hemin 50 μM, SAHA 2000 nM, FK228 1.5 nM, JMA1 1.5 nM, JMA2 1.0 nM, JMA26 500 nM, JMA33 1000 nM, untreated 0.683): 0.737
